Results on 1 molecule are retold here after patent publication US10793566B2, “Bruton's tyrosine kinase inhibitors” (Zibo Biopolar Changsheng Pharmaceutical Co. Ltd., priority 2016, dated 2020).

The target in test [1] is LYN (Homo sapiens (Human), UniProt P07948). In words: LYN kinase assay (HTRF). The class given is biochemical. The note with it: [ATP]=20 μM, LYN=0.12 nM. The protocol: Btk Kinase Assay and Other Kinases Assay Btk kinase activity was determined using a homogenous time resolved fluorescence (HTRF) methodology. Measurements were performed in a reaction volume of 15 μL using 384-well assay plates. Kinase enzyme, inhibitor, ATP and 1 μM peptide substrate were incubated in a reaction buffer compose of Hepes50 mM (pH7.0), NaN3 0.02%, BSA 0.01%, Orthocanadate 0.1 mM. After one hour, the kinase reaction was quenched by the addition of E t-labeled antibody and XL-665 in 1×Detection buffer containing 60 mM EDTA (Cisbio), and the mixture was allowed to incubate for one hour. The HTRF signal was measured on a multimode plate reader (EnVision Multilabel Reader, Perkin Elmer) with an excitation wavelength (λEx) of 330 nm and detection wavelengths (λEm) of 615 and 665 nm. Activity was determined by the ratio of the fluorescence at 665 nm to that at 615 nm. For each compound, enzyme activity as measured at various concentrations of compound, Negative control reactions were performed in the absence of inhibitor in two replicates and eight no enzyme controls were used to determine baseline fluorescence levels. IC50s were obtained according to the equation: […] For LYN assay, [ATP]=20 μM, LYN=0.12 n M. For LCK assay, [ATP]=20 μM, LCK=0.2 nM. For BLK assay, [ATP]=20 μM, BLK=0.6 n M.
Sequence of LYN (P07948 whole entry, species assumed): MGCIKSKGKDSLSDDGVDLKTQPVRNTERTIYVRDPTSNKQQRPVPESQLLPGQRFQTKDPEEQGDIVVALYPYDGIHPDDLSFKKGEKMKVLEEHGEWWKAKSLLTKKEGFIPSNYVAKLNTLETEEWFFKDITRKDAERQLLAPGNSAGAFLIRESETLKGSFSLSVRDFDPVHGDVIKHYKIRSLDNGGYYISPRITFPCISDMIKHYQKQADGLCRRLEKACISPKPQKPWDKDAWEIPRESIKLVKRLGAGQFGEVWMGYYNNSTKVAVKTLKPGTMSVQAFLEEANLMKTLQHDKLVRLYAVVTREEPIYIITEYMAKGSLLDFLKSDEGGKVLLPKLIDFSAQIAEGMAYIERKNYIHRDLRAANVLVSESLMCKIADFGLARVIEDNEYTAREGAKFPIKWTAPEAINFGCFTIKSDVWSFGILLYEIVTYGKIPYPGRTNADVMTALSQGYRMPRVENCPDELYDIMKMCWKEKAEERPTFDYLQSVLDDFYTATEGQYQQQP
(TR-FRET usually uses a lanthanide donor and a delayed reading to cut background.)

Test [2] concerns Ramos cells. In words: Calcium flux assay, anti-IgM stimulated Ramos cells. The test is classed as cell-based. The note with it: Homo sapiens, IgM-induced calcium influx, read-out: Ramos Ca Flux. As to the method: Calcium flux fluorescence-based assays were performed in aFDSS7000EX (Hamamatsu Photonics) fluorometric imaging plate reader according to manufacturer instructions. Compounds to be assayed were dissolved in DMSO, diluted to appropriate concentrations in Ca^2+ buffer ranging from 0 to 10 μM (at a dilution factor of 0.1), added 5 μl (6 X) to each well (the final DMSO concentration was 0.1% in each well). Then 12.5 μL 2× dye loading solution (Fluo-4 NW Calcium Assay Kits, Invitrogen) was added per well of a 384-well plate. Afterwards, actively growing Ramos cells (ATCC) in RPM1640 medium supplemented with 10% FBS (Invitrogen) were washed and re-plated in assay buffer (from Fluo-4 NW Calcium Assay Kits, Invitrogen) to approximately 6.4×10^6/ml (80000 cells/12.5 μL in 384-well plates). The plates were incubated at 37° C. for 30 minutes, then at room temperature for an additional 30 minutes. The plates were now ready to be used in an experiment. Immediately after the transfer and a 10-s recording of baseline fluorescence, the compound treated cells were stimulated with a goat anti-human IgM antibody ([…]; Jackson Immuno Research) and read in a FDSS for 240 seconds. Difference between the signal and that at baseline, designated adjusted relative fluorescence unit, was calculated by using a custom Excel (Microsoft, Redmond, Wash.) template to determine IgM-induced calcium influx and its inhibition by compounds. The table below show the result.
A general note: Calcium flux is commonly read through the fluorescence of an indicator in the cells.

As to `C=CC(=O)N1CC[C@@H](n2nc(-c3ccc(Oc4ccccc4)cc3)c3cnccc32)C1` [Example 1, (R)-1-(3-(3-(4-phenoxyphenyl)-1H-pyrazolo[4,3-c]pyridin-1-yl)pyrrolidin-1-yl)prop-2-en-1-one], the IC50 in test [1] is ≥ 10000 nM; in test [2], 10 to 100 nM.
